This is an account of results in patent publication US7611852B2, “Functional cardiomyocytes from human embryonic stem cells” (Wisconsin Alumni Research Foundation, priority 2002, dated 2009).

For test [1], the system named is human embryonic stem cell-derived cardiomyocytes (beating EB outgrowths). The test can be described thus: Contraction measurements of beating EB outgrowths by video edge detection during electrical field stimulation. To be noted: 1 micromolar, EB electrically stimulated at 1 hertz, basal level defined as 100, FIG. 1. It is filed as cell-based. The text has this: One problem in the testing of cardiomyocytes in EBs is that the rate of spontaneous beating is variable can be dependent on a variety of factors. […] This can be readily done by applying an electrical field stimulation to the EB. This is done most simply by applying electrodes to opposite sides of the culture container in which the EB is contained. […] It is necessary as a part of this process to maintain the EB culture at a constant temperature, since temperature changes can also effect the amplitude of EB beats. It is possible to optically scan the EBs during such beating, using imaging processing observing the EB with video microscopy, to determine the amplitude of the beats which occur in such an EB. […] Additionally other properties of the beat can be monitored such as the rate of contraction and relaxation of the embryoid body providing additional mechanistic information. […]
Contractions were measured using video edge detection. […] Individual beating EBs were monitored with Video Edge Detector VED 105 (Crescent Electronics) through CCD BW Camera NL-2332 (National Electronic) and Sony BW Video Monitor PVM-97 (Sony Corp). The twitch responses at sharp edge of beating EB outgrowth were recorded at 1 kHz through DigiData 1200 A/D converter with pClamp 8.2 acquisition software (both from Axon Instrument, Foster City, Calif.). […]

The subject of test [2] is embryonic ventricular-like cardiomyocytes. It is filed as cell-based. To be noted: 500 nM E-4031.
Test [3] deals with human embryonic stem cell-derived cardiomyocytes. The test can be described thus: Intracellular action potential recording with sharp microelectrodes, cell type not specified. To be noted: 500 nM E-4031. It is filed as cell-based. As to the method: (§1) A single beating, microdissected EB outgrowth was cultured on a glass coverslip for 1-10 days. The coverslip was then attached to the bottom of an experimental chamber mounted on an inverted microscope (Nikon Diaphot 200). The EBs were perfused with Tyrodes solution consisting of (mmol/L): 140 NaCl, 1 MgCl2, 10 HEPES, 10 Glucose, 1.8 CaCl2, pH 7.4 with NaOH at 37° C. Contractions were measured using video edge detection. For intracellular electrophysiology experiments, sharp glass microelectrodes were fabricated with resistances of 30-100 MΩ when filled with 3 mol/L KCl. Spontaneously beating EBs were impaled with the microelectrodes and pipette capacitance was nulled. […] In some experiments, the preparation underwent electrical field stimulation at rates from 1 to 3 Hz. Data were digitized at 20 kHz and filtered at 2 kHz. APs were analyzed using pClamp8.02 (Axon Instruments, Foster City, Calif.) and Origin 6.0 software (Microcal Inc, Northampton, Mass.) to determine AP duration at 50% and 90% of repolarization (APD50 and APD90), AP amplitude (APA), maximum diastolic potential (MDP), and the maximum rate of rise of the AP upstroke (dV/dtmax).
Repolarization of the cardiac action potential is due to multiple ionic currents with an important role played by voltage gated K+ channels; however, there is significant species variability of the exact type of K+ channels present. […]

The test system of test [4] is embryonic atrial-like cardiomyocytes. The test can be described thus: Intracellular action potential recording with sharp microelectrodes, embryonic atrial-like cardiomyocytes in EBs. It is filed as cell-based, human.
Description: The applicants here have determined that the HERG channel response of cardiomyocytes in culture created from human embryonic stem cells can be tested and that they do have the same responsive characteristics as mature heart cells in adult humans. Shown in FIG. 5 is an experiment conducted on an atrial type cell, which is a cardiomyocyte in an EB in culture. Note that the electrical profile of the potential generated by that cell, labeled basal in FIG. 5, is characteristic of an embryonic atrial type action potential. To the culture in which that basal signal was being observed, 500 nanomolar E4031 was added. E4031 is a known highly specific HERG channel blocker which blocks the rapid delayed rectifying potassium current (IKr) in adult human heart cells. The addition of that chemical to the medium in which the EB was cultured led to the modification of the action potential generated by that atrial type cell, as illustrated by the curve marked “500 nM E4031” in FIG. 5. The action potential was prolonged due to delayed return to a resting state. This is precisely the effect that this molecule, E4031, is known to have on adult heart cells and precisely the effect that one would predict from the blockage of the HERG channel.
as §1
Repolarization of the cardiac action potential is due to multiple ionic currents with an important role played by voltage gated K+ channels; however, there is significant species variability of the exact type of K+ channels present. In human heart, current through HERG potassium channels (KCNH2), IKr, plays a major role in repolarization of the action potential. […]

`CC(C)NCC(O)c1ccc(O)c(O)c1` (stereo not shown) [isoproterenol]: in test [1], the “amplitude of the beat or contraction of the EB” value is “increases dramatically”.

Regarding `Cc1cccc(CCN2CCC(C(=O)c3ccc(NS(C)(=O)=O)cc3)CC2)n1` [E-4031], in test [2], the APD50 result was “significant prolongation” and the action potential duration entry is on record as “action potential prolongation”. Moreover, the APD90 entry in test [2] (larger effect on APD90 than APD50) is “significant prolongation”. For the same compound, in test [3], the “APA (action potential amplitude)” value is given as “not statistically significant effects” and the “MDP (maximum diastolic potential)” value is listed as “not statistically significant effects”. For the same compound, in test [4] (500 nM E-4031), the APD50 result is reported as “not APD50 was significantly prolonged”, the APD90 result is “significantly prolonged” and the action potential duration entry is “action potential prolongation”. Moreover, the “action potential duration” value in test [4] (500 nanomolar E4031 added to EB culture, atrial type cell, FIG. 5) is on record as “prolonged”.
